Laboratory results as given in the NIST ThermoML archive (doi:10.1016/j.jct.2013.12.028).
± gives the expanded uncertainty stated by the source.

Assay: mn = molality of the nth substance listed, in mol/kg
Conditions: 101.3 kPa, Liquid, Vibrating tube method

C1CCOC1 [tetrahydrofuran] + O
mass density (278.15 K, m1 = 0.06882): 999.729 ± 0.11 kg/m3 | mass density (278.15 K, m1 = 0.1028): 999.619 ± 0.11 kg/m3 | mass density (278.15 K, m1 = 0.2158): 999.282 ± 0.11 kg/m3 | mass density (278.15 K, m1 = 0.3098): 999.036 ± 0.11 kg/m3 | mass density (278.15 K, m1 = 0.4199): 998.781 ± 0.11 kg/m3 | mass density (278.15 K, m1 = 0.5704): 998.489 ± 0.11 kg/m3 | mass density (278.15 K, m1 = 0.7194): 998.255 ± 0.11 kg/m3 | mass density (278.15 K, m1 = 0.8767): 998.059 ± 0.11 kg/m3 | mass density (278.15 K, m1 = 1.04): 997.903 ± 0.11 kg/m3 | mass density (278.15 K, m1 = 1.174): 997.793 ± 0.11 kg/m3 | mass density (278.15 K, m1 = 1.262): 997.732 ± 0.11 kg/m3 | mass density (278.15 K, m1 = 1.406): 997.65 ± 0.11 kg/m3 | mass density (278.15 K, m1 = 1.576): 997.559 ± 0.11 kg/m3 | mass density (283.15 K, m1 = 0.06882): 999.439 ± 0.11 kg/m3 | mass density (283.15 K, m1 = 0.1028): 999.317 ± 0.11 kg/m3 | mass density (283.15 K, m1 = 0.2158): 998.938 ± 0.11 kg/m3 | mass density (283.15 K, m1 = 0.3098): 998.655 ± 0.11 kg/m3 | mass density (283.15 K, m1 = 0.4199): 998.36 ± 0.11 kg/m3 | mass density (283.15 K, m1 = 0.5704): 997.999 ± 0.11 kg/m3 | mass density (283.15 K, m1 = 0.7194): 997.698 ± 0.11 kg/m3 | mass density (283.15 K, m1 = 0.8767): 997.427 ± 0.11 kg/m3 | mass density (283.15 K, m1 = 1.04): 997.18 ± 0.11 kg/m3 | mass density (283.15 K, m1 = 1.174): 997.013 ± 0.11 kg/m3 | mass density (283.15 K, m1 = 1.262): 996.903 ± 0.11 kg/m3 | mass density (283.15 K, m1 = 1.406): 996.744 ± 0.11 kg/m3 | mass density (283.15 K, m1 = 1.576): 996.552 ± 0.11 kg/m3 | mass density (288.15 K, m1 = 0.06882): 998.826 ± 0.11 kg/m3 | mass density (288.15 K, m1 = 0.1028): 998.697 ± 0.11 kg/m3 | mass density (288.15 K, m1 = 0.2158): 998.289 ± 0.11 kg/m3 | mass density (288.15 K, m1 = 0.3098): 997.977 ± 0.11 kg/m3 | mass density (288.15 K, m1 = 0.4199): 997.637 ± 0.11 kg/m3 | mass density (288.15 K, m1 = 0.5704): 997.225 ± 0.11 kg/m3 | mass density (288.15 K, m1 = 0.7194): 996.863 ± 0.11 kg/m3 | mass density (288.15 K, m1 = 0.8767): 996.519 ± 0.11 kg/m3 | mass density (288.15 K, m1 = 1.04): 996.19 ± 0.11 kg/m3 | mass density (288.15 K, m1 = 1.174): 995.964 ± 0.11 kg/m3 | mass density (288.15 K, m1 = 1.262): 995.814 ± 0.11 kg/m3 | mass density (288.15 K, m1 = 1.406): 995.581 ± 0.11 kg/m3 | mass density (288.15 K, m1 = 1.576): 995.314 ± 0.11 kg/m3 | mass density (293.15 K, m1 = 0.06882): 997.918 ± 0.11 kg/m3 | mass density (293.15 K, m1 = 0.1028): 997.78 ± 0.11 kg/m3 | mass density (293.15 K, m1 = 0.2158): 997.343 ± 0.11 kg/m3 | mass density (293.15 K, m1 = 0.3098): 997.003 ± 0.11 kg/m3 | mass density (293.15 K, m1 = 0.4199): 996.629 ± 0.11 kg/m3 | mass density (293.15 K, m1 = 0.5704): 996.162 ± 0.11 kg/m3 | mass density (293.15 K, m1 = 0.7194): 995.741 ± 0.11 kg/m3 | mass density (293.15 K, m1 = 0.8767): 995.333 ± 0.11 kg/m3 | mass density (293.15 K, m1 = 1.04): 994.935 ± 0.11 kg/m3 | mass density (293.15 K, m1 = 1.174): 994.643 ± 0.11 kg/m3 | mass density (293.15 K, m1 = 1.262): 994.456 ± 0.11 kg/m3 | mass density (293.15 K, m1 = 1.406): 994.16 ± 0.11 kg/m3 | mass density (293.15 K, m1 = 1.576): 993.821 ± 0.11 kg/m3 | mass density (298.15 K, m1 = 0.06882): 996.743 ± 0.11 kg/m3 | mass density (298.15 K, m1 = 0.1028): 996.596 ± 0.11 kg/m3 | mass density (298.15 K, m1 = 0.2158): 996.13 ± 0.11 kg/m3 | mass density (298.15 K, m1 = 0.3098): 995.764 ± 0.11 kg/m3 | mass density (298.15 K, m1 = 0.4199): 995.359 ± 0.11 kg/m3 | mass density (298.15 K, m1 = 0.5704): 994.84 ± 0.11 kg/m3 | mass density (298.15 K, m1 = 0.7194): 994.361 ± 0.11 kg/m3 | mass density (298.15 K, m1 = 0.8767): 993.894 ± 0.11 kg/m3 | mass density (298.15 K, m1 = 1.04): 993.435 ± 0.11 kg/m3 | mass density (298.15 K, m1 = 1.174): 993.087 ± 0.11 kg/m3 | mass density (298.15 K, m1 = 1.262): 992.856 ± 0.11 kg/m3 | mass density (298.15 K, m1 = 1.406): 992.503 ± 0.11 kg/m3 | mass density (298.15 K, m1 = 1.576): 992.084 ± 0.11 kg/m3 | mass density (303.15 K, m1 = 0.06882): 995.331 ± 0.11 kg/m3 | mass density (303.15 K, m1 = 0.1028): 995.178 ± 0.11 kg/m3 | mass density (303.15 K, m1 = 0.2158): 994.687 ± 0.11 kg/m3 | mass density (303.15 K, m1 = 0.3098): 994.293 ± 0.11 kg/m3 | mass density (303.15 K, m1 = 0.4199): 993.859 ± 0.11 kg/m3 | mass density (303.15 K, m1 = 0.5704): 993.293 ± 0.11 kg/m3 | mass density (303.15 K, m1 = 0.7194): 992.771 ± 0.11 kg/m3 | mass density (303.15 K, m1 = 0.8767): 992.247 ± 0.11 kg/m3 | mass density (303.15 K, m1 = 1.04): 991.725 ± 0.11 kg/m3 | mass density (303.15 K, m1 = 1.174): 991.324 ± 0.11 kg/m3 | mass density (303.15 K, m1 = 1.262): 991.065 ± 0.11 kg/m3 | mass density (303.15 K, m1 = 1.406): 990.648 ± 0.11 kg/m3 | mass density (303.15 K, m1 = 1.576): 990.16 ± 0.11 kg/m3 | mass density (308.15 K, m1 = 0.06882): 993.701 ± 0.11 kg/m3 | mass density (308.15 K, m1 = 0.1028): 993.538 ± 0.11 kg/m3 | mass density (308.15 K, m1 = 0.2158): 993.021 ± 0.11 kg/m3 | mass density (308.15 K, m1 = 0.3098): 992.601 ± 0.11 kg/m3 | mass density (308.15 K, m1 = 0.4199): 992.137 ± 0.11 kg/m3 | mass density (308.15 K, m1 = 0.5704): 991.526 ± 0.11 kg/m3 | mass density (308.15 K, m1 = 0.7194): 990.96 ± 0.11 kg/m3 | mass density (308.15 K, m1 = 0.8767): 990.382 ± 0.11 kg/m3 | mass density (308.15 K, m1 = 1.04): 989.802 ± 0.11 kg/m3 | mass density (308.15 K, m1 = 1.174): 989.348 ± 0.11 kg/m3 | mass density (308.15 K, m1 = 1.262): 989.06 ± 0.11 kg/m3 | mass density (308.15 K, m1 = 1.406): 988.583 ± 0.11 kg/m3 | mass density (308.15 K, m1 = 1.576): 988.025 ± 0.11 kg/m3 | mass density (313.15 K, m1 = 0.06882): 991.864 ± 0.11 kg/m3 | mass density (313.15 K, m1 = 0.1028): 991.694 ± 0.11 kg/m3 | mass density (313.15 K, m1 = 0.2158): 991.146 ± 0.11 kg/m3 | mass density (313.15 K, m1 = 0.3098): 990.703 ± 0.11 kg/m3 | mass density (313.15 K, m1 = 0.4199): 990.208 ± 0.11 kg/m3 | mass density (313.15 K, m1 = 0.5704): 989.552 ± 0.11 kg/m3 | mass density (313.15 K, m1 = 0.7194): 988.935 ± 0.11 kg/m3 | mass density (313.15 K, m1 = 0.8767): 988.304 ± 0.11 kg/m3 | mass density (313.15 K, m1 = 1.04): 987.671 ± 0.11 kg/m3 | mass density (313.15 K, m1 = 1.174): 987.162 ± 0.11 kg/m3 | mass density (313.15 K, m1 = 1.262): 986.838 ± 0.11 kg/m3 | mass density (313.15 K, m1 = 1.406): 986.311 ± 0.11 kg/m3 | mass density (313.15 K, m1 = 1.576): 985.688 ± 0.11 kg/m3 | mass density (318.15 K, m1 = 0.06882): 989.851 ± 0.11 kg/m3 | mass density (318.15 K, m1 = 0.1028): 989.672 ± 0.11 kg/m3 | mass density (318.15 K, m1 = 0.2158): 989.097 ± 0.11 kg/m3 | mass density (318.15 K, m1 = 0.3098): 988.631 ± 0.11 kg/m3 | mass density (318.15 K, m1 = 0.4199): 988.102 ± 0.11 kg/m3 | mass density (318.15 K, m1 = 0.5704): 987.402 ± 0.11 kg/m3 | mass density (318.15 K, m1 = 0.7194): 986.735 ± 0.11 kg/m3 | mass density (318.15 K, m1 = 0.8767): 986.049 ± 0.11 kg/m3 | mass density (318.15 K, m1 = 1.04): 985.363 ± 0.11 kg/m3 | mass density (318.15 K, m1 = 1.174): 984.803 ± 0.11 kg/m3 | mass density (318.15 K, m1 = 1.262): 984.443 ± 0.11 kg/m3 | mass density (318.15 K, m1 = 1.406): 983.864 ± 0.11 kg/m3 | mass density (318.15 K, m1 = 1.576): 983.169 ± 0.11 kg/m3
